Measurements reported in patent US7420051B2, “Synthetic process for the manufacture of an ecteinaschidin compound” (Pharma Mar, S.A., priority 2000, dated 2008).

Key:
Format in all cases: cell-based
[1] = test system: P-388 (suspension culture of a lymphoid neoplasm from DBA/2 mouse); test: Cytotoxic activity screening, P-388 cells; details: Mus musculus, P388, 72 h, three days of incubation, approximate IC50
Experimental: (§1) Cell Cultures. Cells were maintained in logarithmic phase of growth in Eagle's Minimum Essential Medium, with Earle's Balanced Salts, with 2.0 mM L-glutamine, with non-essential amino acids, without sodium bicarbonate (EMEM/neaa); supplemented with 10% Fetal Calf Serum (FCS), 10^−2 M sodium bicarbonate and 0.1 g/l penicillin-G+streptomycin sulfate.
(§2) A simple screening procedure has been carried out to determine and compare the antitumour activity of these compounds, using an adapted form of the method described by Bergeron et al (1984). The tumour cell line employed have been P-388 (suspension culture of a lymphoid neoplasm from DBA/2 mouse), A-549 (monolayer culture of a human lung carcinoma), HT-29 (monolayer culture of a human colon carcinoma) and MEL-28 (monolayer culture of a human melanoma).
P-388 cell were seeded into 16 mm wells at 1×10^4 cells per well in 1 ml aliquots of MEM 5FCS containing the indicated concentration of drug. A separate set of cultures without drug was seeded as control growth to ensure that cells remained in exponential phase of growth. All determinations were carried out in duplicate.

[2] = test system: A-549 (monolayer culture of a human lung carcinoma); test: Cytotoxic activity screening, A-549 cells; details: Homo sapiens, A549, 72 h, three days of incubation, Crystal Violet, approximate IC50
Experimental: as §1, §2
(§3) A-549, HT-29 and MEL-28 were seeded into 16 mm wells at 2×10^4 cells per well in 1 ml aliquots of MEM 10FCS containing the indicated concentration of drug. A separate set of cultures without drug was seeded as control growth to ensure that cells remained in exponential phase of growth. All determinations were carried out in duplicate. After three days of incubation at 37° C., 10% CO2 in a 98% humid atmosphere, the wells were stained with 0.1% Crystal Violet. An approximately IC50 was determined by comparing the growth in wells with drug to the growth in wells control.

[3] = test system: HT-29 (monolayer culture of a human colon carcinoma); test: Cytotoxic activity screening, HT-29 cells; details: Homo sapiens, HT-29, 72 h, three days of incubation, Crystal Violet, approximate IC50
Experimental: as §1, §2, §3

[4] = test system: MEL-28 (monolayer culture of a human melanoma); test: Cytotoxic activity screening, MEL-28 cells; details: SK-MEL-28, 72 h, three days of incubation, Crystal Violet, approximate IC50
Experimental: as §1, §2, §3

[5] = test system: CV-1; test: Cytotoxic activity screening, CV-1 cells; details: Cercopithecidae
[6] = test system: DU-145; test: Cytotoxic activity screening, DU-145 cells; details: Homo sapiens, DU-145, DU-145 cells

Measured: IC50

COc1c(C)cc2c(c1O)[C@@H]1C3Cc4c(O)c(C)c5c(c4[C@H](CN4C(=O)c6ccccc6C4=O)N3[C@@H](C#N)[C@H](C2)N1C)OCO5 (stereo partly drawn)
0.001 µM: all assays above
